These are literature values, as cited in patent publication US20220331279A1, “THERAPEUTIC METHODS AND COMPOSITIONS FOR TREATING CANCER USING 6,8-BIS-BENZYLTHIO-OCTANOIC ACID AND A GLUTAMINASE INHIBITOR” (Rafael Pharmaceuticals, lnc., priority 2019, published 2022).

For this data set the following is noted: after IV dosing; Pardee, T. S. et al., Clin. Cancer Res. 2014, 20, 5255-64.

Structures are written as SMILES.

In the case of `O=C(O)CCCCC(CCSCc1ccccc1)SCc1ccccc1` (stereo not shown) [6,8-bis-benzylthio-octanoic acid], the half-life (in general, the time needed for the level to fall by half in the phase considered) is 1 to 2 h.
